Assay results taken from patent US11597727B2 (THE REGENTS OF THE UNIVERSITY OF CALIFORNIA, priority 2018, dated 2023).

Target: integrin α2β1 (Homo sapiens, UniProt P05556+P17301)
Assay: HT 1080 cell adhesion assay on rat tail collagen I
Type: cell-based
Parameters: HT1080 (human fibrosarcoma) cells (or human airway smooth muscle cells) were detached and resuspended in serum-free DMEM; endogenous in cells; host or cells: HT1080 human fibrosarcoma cells
Conditions: HT1080 (human fibrosarcoma) cells on rat tail collagen I, absorbance at 595 nm, triplicate; read-out: IC50s from HT 1080 Cell adhesion assay
Description: Cell adhesion Assay: Ninety-six-well flat-bottomed tissue culture plates were coated with rat tail collagen I for 1 hour at 37° C. After incubation, wells were blocked with 1% BSA at 37° C. for 1 hour. Control wells were filled with 1% BSA. HT1080 (human fibrosarcoma) cells (or human airway smooth muscle cells) were detached and resuspended in serum-free DMEM. Cells were incubated with anti-integrin alpha2 antibody control or 10-fold dilutions of each compound with a starting concentration of 10 uM for 15 minutes at 4° C. before plating. The plates were centrifuged at 10 g for 5 minutes before incubation for 1 hour at 37° C. in humidified 5% CO2. Nonadherent cells were removed by centrifugation (top side down) at 10 g for 5 minutes. Attached cells were stained with 0.5% crystal violet, and the wells were washed with PBS. The relative number of cells in each well was evaluated after solubilization in 40 μl of 2% Triton X-100 by measuring absorbance at 595 nm in a microplate reader. All determinations were carried out in triplicate.

Sequence of integrin α2β1 (P17301 30-1181): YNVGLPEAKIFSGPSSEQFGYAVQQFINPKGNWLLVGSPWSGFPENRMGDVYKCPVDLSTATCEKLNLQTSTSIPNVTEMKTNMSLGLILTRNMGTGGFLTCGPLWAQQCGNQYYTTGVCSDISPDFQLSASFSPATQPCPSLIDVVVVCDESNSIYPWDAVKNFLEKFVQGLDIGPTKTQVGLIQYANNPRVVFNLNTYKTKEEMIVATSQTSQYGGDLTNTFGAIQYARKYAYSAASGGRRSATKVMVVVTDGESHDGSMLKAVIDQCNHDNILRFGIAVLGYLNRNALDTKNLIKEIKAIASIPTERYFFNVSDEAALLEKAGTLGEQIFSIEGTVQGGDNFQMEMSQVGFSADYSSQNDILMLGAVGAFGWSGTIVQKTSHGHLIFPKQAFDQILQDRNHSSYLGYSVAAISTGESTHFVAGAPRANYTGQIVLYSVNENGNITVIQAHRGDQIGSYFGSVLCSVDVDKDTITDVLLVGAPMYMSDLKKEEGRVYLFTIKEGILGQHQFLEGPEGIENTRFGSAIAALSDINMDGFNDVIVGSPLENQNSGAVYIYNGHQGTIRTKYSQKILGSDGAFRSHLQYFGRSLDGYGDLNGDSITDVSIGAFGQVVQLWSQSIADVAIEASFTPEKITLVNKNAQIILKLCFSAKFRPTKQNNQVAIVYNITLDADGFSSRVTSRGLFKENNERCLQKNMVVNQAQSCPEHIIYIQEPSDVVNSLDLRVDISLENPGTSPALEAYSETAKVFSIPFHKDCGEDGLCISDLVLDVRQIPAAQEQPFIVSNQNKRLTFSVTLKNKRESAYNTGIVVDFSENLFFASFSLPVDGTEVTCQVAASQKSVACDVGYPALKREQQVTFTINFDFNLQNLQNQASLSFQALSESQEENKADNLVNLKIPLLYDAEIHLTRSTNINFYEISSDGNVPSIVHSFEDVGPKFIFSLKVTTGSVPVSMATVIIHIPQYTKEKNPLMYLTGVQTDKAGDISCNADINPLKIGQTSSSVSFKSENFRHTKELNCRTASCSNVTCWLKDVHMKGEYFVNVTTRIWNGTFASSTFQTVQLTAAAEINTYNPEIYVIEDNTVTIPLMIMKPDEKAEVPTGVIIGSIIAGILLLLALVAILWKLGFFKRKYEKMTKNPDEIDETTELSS
Sequence of integrin α2β1 (P05556 21-798): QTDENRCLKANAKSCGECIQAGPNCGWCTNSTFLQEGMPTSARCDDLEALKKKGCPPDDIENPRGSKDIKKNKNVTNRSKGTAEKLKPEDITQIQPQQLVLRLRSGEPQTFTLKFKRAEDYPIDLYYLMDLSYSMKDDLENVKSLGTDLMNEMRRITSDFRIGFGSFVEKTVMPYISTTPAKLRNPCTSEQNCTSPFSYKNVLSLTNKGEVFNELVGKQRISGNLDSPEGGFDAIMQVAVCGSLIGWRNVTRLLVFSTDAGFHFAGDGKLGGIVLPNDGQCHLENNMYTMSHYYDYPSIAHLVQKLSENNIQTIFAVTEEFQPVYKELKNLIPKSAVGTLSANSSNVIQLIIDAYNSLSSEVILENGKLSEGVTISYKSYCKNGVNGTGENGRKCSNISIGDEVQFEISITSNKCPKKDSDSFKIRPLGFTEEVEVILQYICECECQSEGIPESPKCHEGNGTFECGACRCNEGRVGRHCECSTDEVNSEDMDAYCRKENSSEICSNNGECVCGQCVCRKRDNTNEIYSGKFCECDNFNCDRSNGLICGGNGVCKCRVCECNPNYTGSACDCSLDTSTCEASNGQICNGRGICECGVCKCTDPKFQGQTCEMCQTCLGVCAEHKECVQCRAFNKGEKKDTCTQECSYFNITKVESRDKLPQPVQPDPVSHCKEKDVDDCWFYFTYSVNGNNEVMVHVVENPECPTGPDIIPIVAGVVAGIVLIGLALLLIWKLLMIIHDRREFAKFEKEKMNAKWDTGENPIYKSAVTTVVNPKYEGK

IC50 [µM]	SMILES
10 to 100	CC1(C)C2CCC(CNC(=O)NC[C@H](NC(=O)c3c(Cl)cccc3Cl)C(=O)O)C1C2 (stereo partly shown) [A2-173]
> 100	O=C(N[C@@H](CNc1nccc(-c2ccccc2)n1)C(=O)O)c1c(Cl)cccc1Cl [A2-73, (S)-2-(2,6-dichlorobenzamido)-3-((4-phenylpyrimidin-2-yl)amino)propanoic acid]
10 to 100	O=C(NCC1CC2CCC1C2)NC[C@H](NC(=O)c1c(Cl)cccc1Cl)C(=O)O (stereo partly drawn) [A2-174, (2S)-3-(3-(bicyclo[2.2.1]heptan-2-ylmethyl)ureido)-2-(2,6-dichlorobenzamido)propanoic acid]
< 10	O=C(NC[C@H](NC(=O)c1c(Cl)cccc1Cl)C(=O)O)N[C@@H]1CCc2ccccc21 [A2-85, (S)-2-(2,6-dichlorobenzamido)-3-(3-((R)-2,3-dihydro-1H-inden-1-yl)ureido)propanoic acid]
> 100	O=C(NCC1CCCCC1)NC[C@H](NC(=O)c1c(Cl)cccc1Cl)C(=O)O [KZ-1-22, (S)-3-(3-(cyclohexylmethyl)ureido)-2-(2,6-dichlorobenzamido)propanoic acid]
10 to 100	O=C(NCc1ccccc1)NC[C@H](NC(=O)c1c(F)cccc1Br)C(=O)O [A2-36, (S)-3-(3-benzylureido)-2-(2-bromo-6-fluorobenzamido)propanoic acid]
10 to 100	O=C(NC[C@H](NC(=O)c1c(Cl)cccc1Cl)C(=O)O)NC1CCC2(CCCCC2)CC1 [A2-179, (S)-2-(2,6-dichlorobenzamido)-3-(3-(spiro[5.5]undecan-3-yl)ureido)propanoic acid]
> 100	O=C(NCCc1ccccc1)NC[C@H](NC(=O)c1c(Cl)cccc1Cl)C(=O)O [KZ-1-11, (S)-2-(2,6-dichlorobenzamido)-3-(3-phenethylureido)propanoic acid]
10 to 100	O=C(NCc1ccccc1)NC[C@H](NC(=O)c1c(C(F)(F)F)cccc1C(F)(F)F)C(=O)O [A2-27, (S)-3-(3-benzylureido)-2-(2,6-bis(trifluoromethyl)benzamido)propanoic acid]

The remaining lines, values behind:

SMILES	IC50 [µM]
Nc1ccc(CNC(=O)NC[C@H](NC(=O)c2c(Cl)cccc2Cl)C(=O)O)cc1 [KZ-1-37, (S)-3-(3-(4-aminobenzyl)ureido)-2-(2,6-dichlorobenzamido)propanoic acid]	> 100
O=C(NC[C@H](NC(=O)c1c(Cl)cccc1Cl)C(=O)O)Nc1ccccc1 [KZ-1-25, (S)-2-(2,6-dichlorobenzamido)-3-(3-phenylureido)propanoic acid]	> 100
O=C(NC[C@H](NC(=O)c1c(Cl)cccc1Cl)C(=O)O)NCC12CC3CC(CC(O)(C3)C1)C2 [A2-153]	10 to 100
CCC12CC3CC(C1)CC(NC(=O)NC[C@H](NC(=O)c1c(Cl)cccc1Cl)C(=O)O)(C3)C2 [A2-129, (S)-2-(2,6-dichlorobenzamido)-3-(3-(3-ethyladamantan-1-yl)ureido)propanoic acid]	10 to 100
CC(C)(C)NC(=O)NC[C@H](NC(=O)c1c(Cl)cccc1Cl)C(=O)O	> 100
O=C(NC[C@H](NC(=O)c1c(Cl)cccc1Cl)C(=O)O)NC12CC3CC(CC(C3)C1)C2 [A2-87]	10 to 100
O=C(NCc1ccc(Cl)cc1)NC[C@H](NC(=O)c1c(Cl)cccc1Cl)C(=O)O [KZ-1-26, (S)-3-(3-(4-chlorobenzyl)ureido)-2-(2,6-dichlorobenzamido)propanoic acid]	> 100
O=C(NCc1ccsc1)NC[C@H](NC(=O)c1c(Cl)cccc1Cl)C(=O)O [KZ-1-38, (S)-2-(2,6-dichlorobenzamido)-3-(3-(thiophen-3-ylmethyl)ureido)propanoic acid]	10 to 100
O=C(NC[C@H](NC(=O)c1c(Cl)cccc1Cl)C(=O)O)NC1CCC2(CC1)C1CC3CC(C1)CC2C3 (stereo partly drawn) [A2-180, (S)-2-(2,6-dichlorobenzamido)-3-(3-(spiro[adamantane-2,1′-cyclohexan]-4′-yl)ureido)propanoic acid]	10 to 100
O=C(NCC1CC12CCCCC2)NC[C@H](NC(=O)c1c(Cl)cccc1Cl)C(=O)O (stereo partly drawn) [A2-177, (2S)-2-(2,6-dichlorobenzamido)-3-(3-(spiro[2.51]octan-1-ylmethyl)ureido)propanoic acid]	10 to 100
